In patent US10519177B2, “Heterocyclic compounds and uses thereof” (Plexxikon Inc., priority 2013, dated 2019):

Assays:
[1] = system: MV-4-11 cells; test: Oncology cell growth assay MV-4-11 (CellTiter Glo); type: cell-based; conditions: Homo sapiens, MV4-11, 72 h; MV-4-11, 3d growth; read-out: Cell activity (IC50 μM) MV-4-11 3d-Growth
Summary of the method: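 MV-4-11 AML cells (MLL-AF4), 3000 per well, exposed to 8-point 1:3 compound titration from 10 μM top concentration (0.2% DMSO) for 72 h. Viability by CellTiter Glo luminescence, normalized to DMSO controls; pIC50 from four-parameter curve fit.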

[2] = target: BRD4-BD12 (1-477) (Homo sapiens (Human), UniProt O60885); test: Alphascreen binding assay BRD4-BD12; conditions: BRD4(1 2) H4; read-out: Biochemical activity (IC50 μM) BRD4(1 2) H4
Summary of the method: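 First, compound was preincubated 1 h at room temperature with the His-tagged BRD4 protein (BD1 44-164 or tandem BD12 1-477) and acetylated H4 peptide. Next, donor and acceptor beads were added at 7.5 μg/ml final. After 30 min, AlphaScreen emission was recorded.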

[3] = system: bromodomain; test: at least one of the bromodomain cell assays of Example 57; type: cell-based; conditions: at least one of the bromodomain cell assays described in Example 57; read-out: IC50 in at least one of the bromodomain cell assays

SMILES | IC50 [1] [µM] | IC50 [2] [µM] | IC50 [3] [nM]
COC(=O)c1ccc(-c2cn(CC3CCCC3)c3cc(-c4c(C)noc4C)cnc23)cc1 [P-0550, methyl 4-[1-(cyclopentylmethyl)-6-(3,5-dimethylisoxazol-4-yl)pyrrolo[3,2-b]pyridin-3-yl]benzoate] | 1 to 10 | < 1 | < 10000
Cc1noc(C)c1-c1cnc2c(-c3cnn(CC(F)(F)F)c3)cn(CC3CCCC3)c2c1 [P-0551, 4-[1-(cyclopentylmethyl)-3-[1-(2,2,2-trifluoroethyl)pyrazol-4-yl]pyrrolo[3,2-b]pyridin-6-yl]-3,5-dimethyl-isoxazole] | < 1 | < 1 | < 10000
Cc1noc(C)c1-c1cnc2c(-c3ccc(C(=O)O)cc3)cn(CC3CCCC3)c2c1 [P-0552, 4-[1-(cyclopentylmethyl)-6-(3,5-dimethylisoxazol-4-yl)pyrrolo[3,2-b]pyridin-3-yl]benzoic acid] | < 1 | < 1 | < 10000
Cc1noc(C)c1-c1cnc2c(-c3cnn(CC(F)(F)F)c3)cn(CC3CCCCC3)c2c1 [P-0553, 4-[1-(cyclohexylmethyl)-3-[1-(2,2,2-trifluoroethyl)pyrazol-4-yl]pyrrolo[3,2-b]pyridin-6-yl]-3,5-dimethyl-isoxazole] | < 1 | < 1 | < 10000
Cc1noc(C)c1-c1cnc2c(-c3ccc(C(=O)O)cc3)cn(CC3CCCCC3)c2c1 [P-0554, 4-[1-(cyclohexylmethyl)-6-(3,5-dimethylisoxazol-4-yl)pyrrolo[3,2-b]pyridin-3-yl]benzoic acid] | < 1 | < 1 | < 10000
CNS(=O)(=O)c1ccc(-c2cn([C@@H](C)c3ccccn3)c3cc(-c4c(C)noc4C)cnc23)cc1 [P-0555, 4-[6-(3,5-dimethylisoxazol-4-yl)-1-[(1S)-1-(2-pyridyl)ethyl]pyrrolo[3,2-b]pyridin-3-yl]-N-methyl-benzenesulfonamide] | < 1 | < 1 | < 10000
CCNS(=O)(=O)c1ccc(-c2cn([C@@H](C)c3ccccn3)c3cc(-c4c(C)noc4C)cnc23)cc1 [P-0556, 4-[6-(3,5-dimethylisoxazol-4-yl)-1-[(1S)-1-(2-pyridyl)ethyl]pyrrolo[3,2-b]pyridin-3-yl]-N-ethyl-benzenesulfonamide] | < 1 | < 1 | < 10000
Cc1noc(C)c1-c1cnc2c(-c3ccc(S(=O)(=O)NC4CC4)cc3)cn([C@@H](C)c3ccccn3)c2c1 [P-0557, N-cyclopropyl-4-[6-(3,5-dimethylisoxazol-4-yl)-1-[(1S)-1-(2-pyridyl)ethyl]pyrrolo[3,2-b]pyridin-3-yl]benzenesulfonamide] | < 1 | < 1 | < 10000
Cc1noc(C)c1-c1cnc2c(-c3ccc(CC(=O)O)cc3)cn([C@@H](C)c3ccccn3)c2c1 [P-0558, 2-[4-[6-(3,5-dimethylisoxazol-4-yl)-1-[(1S)-1-(2-pyridyl)ethyl]pyrrolo[3,2-b]pyridin-3-yl]phenyl]acetic acid] | < 1 | < 1 | < 10000
COC(=O)c1ccc(-c2cn([C@@H](C)c3ccccc3)c3cc(-c4c(C)noc4C)cnc23)cc1 [P-0559, methyl 4-[6-(3,5-dimethylisoxazol-4-yl)-1-[(1S)-1-phenylethyl]pyrrolo[3,2-b]pyridin-3-yl]benzoate] | < 1 | < 1 | < 10000
Cc1noc(C)c1-c1cnc2c(-c3ccc(C(=O)O)cc3)cn([C@@H](C)c3ccccc3)c2c1 [P-0560, 4-[6-(3,5-dimethylisoxazol-4-yl)-1-[(1S)-1-phenylethyl]pyrrolo[3,2-b]pyridin-3-yl]benzoic acid] | < 1 | < 1 | < 10000
CNC(=O)Nc1ccc(-c2cn(CC3CCC(F)(F)CC3)c3cc(-c4c(C)noc4C)cnc23)cc1 [P-0561, 1-[4-[1-[(4,4-difluorocyclohexyl)methyl]-6-(3,5-dimethylisoxazol-4-yl)pyrrolo[3,2-b]pyridin-3-yl]phenyl]-3-methyl-urea] | < 1 | < 1 | < 10000
Cc1noc(C)c1-c1cnc2c(-c3ccc(NC(=O)NC4CC4)cc3)cn(CC3CCC(F)(F)CC3)c2c1 [P-0562, 1-cyclopropyl-3-[4-[1-[(4,4-difluorocyclohexyl)methyl]-6-(3,5-dimethylisoxazol-4-yl)pyrrolo[3,2-b]pyridin-3-yl]phenyl]urea] | < 1 | < 1 | < 10000
CNC(=O)Nc1ccc(-c2cn([C@@H](C)c3ccccn3)c3cc(-c4c(C)noc4C)cnc23)cc1 [P-0563, 1-[4-[6-(3,5-dimethylisoxazol-4-yl)-1-[(1S)-1-(2-pyridyl)ethyl]pyrrolo[3,2-b]pyridin-3-yl]phenyl]-3-methyl-urea] | < 1 | < 1 | < 10000
Cc1noc(C)c1-c1cnc2c(-c3ccc(NC(=O)NC4CC4)cc3)cn([C@@H](C)c3ccccn3)c2c1 [P-0564, 1-cyclopropyl-3-[4-[6-(3,5-dimethylisoxazol-4-yl)-1-[(1S)-1-(2-pyridyl)ethyl]pyrrolo[3,2-b]pyridin-3-yl]phenyl]urea] | < 1 | < 1 | < 10000
COC(=O)Cc1ccc(-c2cn([C@@H](C)c3ccccn3)c3cc(-c4c(C)noc4C)cnc23)cc1 [P-0565, methyl 2-[4-[6-(3,5-dimethylisoxazol-4-yl)-1-[(1S)-1-(2-pyridyl)ethyl]pyrrolo[3,2-b]pyridin-3-yl]phenyl]acetate] | < 1 | < 1 | < 10000
Cc1noc(C)c1-c1cnc2c(-c3ccc(C(F)(F)C(=O)O)cc3)cn([C@@H](C)c3ccccn3)c2c1 [P-0566, 2,2-difluoro-2-(4-(6-(3,5-dimethylisoxazol-4-yl)-1-((S)-1-(pyridin-2-yl)ethyl)-1H-pyrrolo[3,2-b]pyridin-3-yl)phenyl)acetic acid] | 1 to 10 | < 1 | < 10000
CC[C@@H](c1ccccc1)n1cc(-c2ccc(C(=O)O)cc2)c2ncc(-c3c(C)noc3C)cc21 [P-0567, 4-[6-(3,5-dimethylisoxazol-4-yl)-1-[(1S)-1-phenylpropyl]pyrrolo[3,2-b]pyridin-3-yl]benzoic acid] | < 1 | < 1 | < 10000
Cc1noc(C)c1-c1cnc2c(-c3ccc(-c4nnn[nH]4)cc3)cn([C@@H](C)c3ccccn3)c2c1 [P-0568, 3,5-dimethyl-4-[1-[(1S)-1-(2-pyridyl)ethyl]-3-[4-(1H-tetrazol-5-yl)phenyl]pyrrolo[3,2-b]pyridin-6-yl]isoxazole] | < 1 | < 1 | < 10000
CC[C@H](c1ccccc1)n1cc(-c2ccc(C(=O)OC)cc2)c2ncc(-c3c(C)noc3C)cc21 [P-0569, methyl 4-[6-(3,5-dimethylisoxazol-4-yl)-1-[(1R)-1-phenylpropyl]pyrrolo[3,2-b]pyridin-3-yl]benzoate] | < 1 | < 1 | < 10000
CC[C@H](c1ccccc1)n1cc(-c2ccc(C(=O)O)cc2)c2ncc(-c3c(C)noc3C)cc21 [P-0570, 4-[6-(3,5-dimethylisoxazol-4-yl)-1-[(1R)-1-phenylpropyl]pyrrolo[3,2-b]pyridin-3-yl]benzoic acid] | < 1 | < 1 | < 10000
[2H]C([2H])(O)c1ccc(-c2cn(CC3CCC(F)(F)CC3)c3cc(-c4c(C)noc4C)cnc23)cc1 [P-0571, dideutrio-[4-[1-[(4,4-difluorocyclohexyl)methyl]-6-(3,5-dimethylisoxazol-4-yl)pyrrolo[3,2-b]pyridin-3-yl]phenyl]methanol] | < 1 | < 1 | < 10000
Cc1noc(C)c1-c1cnc2c(I)cn([C@@H](C)c3ccccn3)c2c1 [P-0572, 4-[3-iodo-1-[(1S)-1-(2-pyridyl)ethyl]pyrrolo[3,2-b]pyridin-6-yl]-3,5-dimethyl-isoxazole] | < 1 | < 1 | < 10000
Cc1noc(C)c1-c1cnc2c(-c3ccc(C#N)cc3)cn([C@@H](C)c3ccccn3)c2c1 [P-0573, 4-[6-(3,5-dimethylisoxazol-4-yl)-1-[(1S)-1-(2-pyridyl)ethyl]pyrrolo[3,2-b]pyridin-3-yl]benzonitrile] | < 1 | < 1 | < 10000
COC(=O)c1ccc(-c2cn(C(c3ccccn3)c3ccccn3)c3cc(-c4c(C)noc4C)cnc23)cc1 [P-0574, methyl 4-[1-[bis(2-pyridyl)methyl]-6-(3,5-dimethylisoxazol-4-yl)pyrrolo[3,2-b]pyridin-3-yl]benzoate] | < 1 | < 1 | < 10000
Cc1noc(C)c1-c1cnc2c(I)cn(C(c3ccccn3)c3ccccn3)c2c1 [P-0575, 4-[1-[bis(2-pyridyl)methyl]-3-iodo-pyrrolo[3,2-b]pyridin-6-yl]-3,5-dimethyl-isoxazole] | < 1 | < 1 | < 10000
Cc1noc(C)c1-c1cnc2c(-c3ccc(C(=O)O)cc3)cn(C(c3ccccn3)c3ccccn3)c2c1 [P-0576, 4-[1-[bis(2-pyridyl)methyl]-6-(3,5-dimethylisoxazol-4-yl)pyrrolo[3,2-b]pyridin-3-yl]benzoic acid] | < 1 | < 1 | < 10000
Cc1noc(C)c1-c1cnc2c(I)cn(CC3CCCCCCC3)c2c1 [P-0577, 4-[1-(cyclooctylmethyl)-3-iodo-pyrrolo[3,2-b]pyridin-6-yl]-3,5-dimethyl-isoxazole] | < 1 | < 1 | < 10000
